Laboratory results reported in patent publication US10899699B2, “Vinylogous phenethylamines as neurotransmitter releasers” (RESEARCH TRIANGLE INSTITUTE, priority 2016, dated 2021).
Like-named read-outs stand apart in the source and are kept apart here.

Experiments:
[1] = target: T1, Dopamine Transporter (DAT) (Rattus norvegicus, UniProt P23977); assay: DAT release assay, rat brain synaptosomes; assay type: biochemical; details: release of [3H]MPP+ from rat striatum synaptosomes; mean±SD (n=3)
T1 construct: Synaptosomes were prepared from rat striatum for the DAT assays; from tissue; host or cells: rat striatum synaptosomes
Protocol: (§1) BAT activity was measured using synaptosomes prepared from rat brain homogenates according to the protocol developed by Rothman and co-workers (Rothman, et al., Eur. J. Pharmacol. 2002, 447(1), 51). Compounds were first screened in uptake inhibition and release assays to determine the exact mode of drug action. […] Substrate reversal experiments were conducted to validate substrate activity. The analogs were also tested for agonist activity at the serotonin-2 receptor subtypes (5-HT2A, 5-HT2B, 5-HT2C) using in vitro calcium mobilization assays in transfected HEK293 cells as previously described. These receptors are associated with the pharmacology of abused drugs, as 5-HT2A agonists are thought to be hallucinogenic while […] are associated with valvular heart disease and pulmonary hypertension; activity at these receptors would be considered off-target liabilities. On the other hand, agonists at 5-HT2C may be beneficial as potential pharmacotherapies for drug abuse and appetite suppression.
(§2) All animal studies were conducted in facilities fully accredited by the Association for the Assessment and Accreditation of Laboratory Animal Care (AAALAC) and experiments were performed in accordance with the Institutional Care and Use Committee (IACUC) of the National Institute on Drug Abuse Intramural Research Program (NIDA IRP). Rats were euthanized by CO2 narcosis, and brains were processed to yield synaptosomes as previously described (Rothman, R B, et al., Eur. J. Pharmacol. 2002, 447(1), 51.). Synaptosomes were prepared from rat striatum for the DAT assays, whereas synaptosomes were prepared from whole brain minus striatum and cerebellum for the NET and SERT assays.
(§3) For release assays, 9 nM [^3H]1-methyl-4-phenylpyridinium ([^3H]MPP+) was used as the radiolabeled substrate for DAT and NET, while 5 nM [^3H]5-HT was used as a substrate for SERT. All buffers used in the release assay methods contained 1 μM reserpine to block vesicular uptake of substrates. The selectivity of release assays was optimized for a single transporter by including unlabeled blockers to prevent the uptake of [^3H]MPP+ or [^3H]5-HT by competing transporters. Synaptosomes were preloaded with radiolabeled substrate in Krebs-phosphate buffer for 1 h (steady state). Release assays were initiated by adding 850 μL of preloaded synaptosomes to 150 μL of test drug. Release was terminated by vacuum filtration and retained radioactivity was quantified as described for uptake inhibition. Concentration-response curves were generated to yield EC50 values.
(§4) Substrate reversal experiments were conducted to validate substrate activity. The releasing ability of test compounds was tested at an EC80 concentration in the absence and presence of an uptake inhibitor (250 nM […] for DAT, 166 nM desipramine for NET, 100 nM fluoxetine for SERT).

[2] = target: T2, Serotonin Transporter (SERT) (Rattus norvegicus, UniProt P31652); assay: SERT release assay, rat brain synaptosomes; assay type: biochemical; details: for EC50: release of [3H]5-HT from rat brain synaptosomes, mean±SD (n=3)
T2 construct: synaptosomes were prepared from whole brain minus striatum and cerebellum for the NET and SERT assays; from tissue; host or cells: rat whole brain minus striatum and cerebellum, synaptosomes
Protocol: as §1, §2, §3, §4

[3] = target: Norepinephrine Transporter (NET) (Rattus norvegicus, UniProt Q9WTR4); assay type: biochemical; details: read-out: EC50, (nM ± SD) NET; release of [3H]MPP+ from rat brain synaptosomes; mean±SD (n=3)
[4] = tested on: Norepinephrine Transporter (NET); assay type: biochemical, rat
human 5-HT2A receptor = target: T3, human 5-HT2A receptor (Homo sapiens, UniProt P28223); assay: 5-HT2A calcium mobilization assay in HEK293 cells (agonist activity); assay type: cell-based
T3 construct: expressed in transfected cells
Protocol: (§5) BAT activity was measured using synaptosomes prepared from rat brain homogenates according to the protocol developed by Rothman and co-workers (Rothman, et al., Eur. J. Pharmacol. 2002, 447(1), 51). Compounds were first screened in uptake inhibition and release assays to determine the exact mode of drug action. Compounds active in both assays are releasers while compounds active only in the uptake inhibition assay are uptake inhibitors. Active compounds were then fully characterized by running 8-point concentration response curves in the assay corresponding to their mechanism of action. Substrate reversal experiments were conducted to validate substrate activity. The analogs were also tested for agonist activity at the serotonin-2 receptor subtypes (5-HT2A, 5-HT2B, 5-HT2C) using in vitro calcium mobilization assays in transfected HEK293 cells as previously described. These receptors are associated with the pharmacology of abused drugs, as 5-HT2A agonists are thought to be hallucinogenic while […] are associated with valvular heart disease and pulmonary hypertension; activity at these receptors would be considered off-target liabilities. On the other hand, agonists at 5-HT2C may be beneficial as potential pharmacotherapies for drug abuse and appetite suppression.
(§6) HEK293 cells stably expressing the human 5-HT2A receptor were used. The day before the assay, cells were plated into 96-well black-walled assay plates at 40,000 cells/well in DMEM-HG supplemented with 10% fetal bovine serum, 100 units of penicillin and streptomycin, and 15 mM HEPES. The cells were incubated overnight at 37° C., 5% CO2. Prior to the assay, Calcium 5 dye (Molecular Devices) was reconstituted according to the manufacturer instructions. The reconstituted dye was diluted 1:40 in pre-warmed (37° C.) assay buffer (1×HBSS, 20 mM HEPES, 2.5 mM probenecid, pH 7.4 at 37° C.). Growth medium was removed and the cells were gently washed with 100 μL of pre-warmed (37° C.) assay buffer. The cells were incubated for 45 minutes at 37° C., 5% CO2 in 200 μL of the diluted Calcium 5 dye. Serial dilutions of the test compounds were prepared in 1% DMSO/assay buffer, aliquoted into 96-well polypropylene plates, and warmed to 37° C. After the dye-loading incubation period, the cells were pre-treated with 25 μL of 9% DMSO/assay buffer and incubated for 15 min at 37° C. After the pre-treatment incubation period, the plate was read with a FlexStation® II (Molecular Devices). Calcium-mediated changes in fluorescence were monitored every 1.52 seconds over a 60 second time period, with the FlexStation® II adding 25 μL of test compound dilutions at the 19 second time point (excitation at 485 nm, detection at 525 nm). Peak kinetic reduction (SoftMax, Molecular Devices) relative fluorescent units (RFU) were plotted against compound concentration. Data were fit to the appropriate three-parameter logistic curve to generate EC50 values (GraphPad Prism 6.0, GraphPad Software, Inc., San Diego, Calif.). 5-HT2B and 5-HT2C calcium mobilization assays were run in the same manner with stable 5-HT2B and 5-HT2C HEK293 cells except that 35,000 cells/well were used instead of 40,000 cells/well.

5-HT2B = target: T4, 5-HT2B (Homo sapiens, UniProt P41595); assay: 5-HT2B calcium mobilization assay in HEK293 cells (agonist activity); assay type: cell-based
T4 construct: expressed in transfected cells
Protocol: as §5, §6

5-HT2C = target: T5, 5-HT2C (Homo sapiens, UniProt P28335); assay: 5-HT2C calcium mobilization assay in HEK293 cells (agonist activity); assay type: cell-based
T5 construct: expressed in transfected cells
T5 sequence (P28335 33-458): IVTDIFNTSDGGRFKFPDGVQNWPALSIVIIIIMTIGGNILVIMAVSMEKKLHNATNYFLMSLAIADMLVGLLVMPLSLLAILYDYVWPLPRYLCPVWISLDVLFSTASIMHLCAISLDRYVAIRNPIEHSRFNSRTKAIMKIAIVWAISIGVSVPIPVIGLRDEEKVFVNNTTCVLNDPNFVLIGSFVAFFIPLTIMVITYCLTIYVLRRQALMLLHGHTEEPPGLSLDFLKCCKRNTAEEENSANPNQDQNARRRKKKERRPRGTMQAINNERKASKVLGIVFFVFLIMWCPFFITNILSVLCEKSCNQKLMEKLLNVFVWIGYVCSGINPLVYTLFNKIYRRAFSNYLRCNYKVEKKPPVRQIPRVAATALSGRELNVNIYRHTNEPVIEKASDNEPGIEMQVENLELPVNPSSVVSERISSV
Protocol: as §5, §6

[5] = rats; cited from earlier work
[6] = abstinent cocaine-dependent patients; cited from earlier work
cortical 5-HT = details: high doses; cited from earlier work
[7] = rhesus monkeys, chronic treatment; progressive-ratio, choice, second-order schedules; cited from earlier work
[8] = double-blind, placebo-controlled clinical trial; cited from earlier work
[9] = calcium mobilization, agonist, HEK293, read-out: 5-HT2A EC50, (nM ± SEM)
[10] = calcium mobilization, agonist, HEK293, read-out: 5-HT2B EC50, (nM ± SEM)
[11] = calcium mobilization, agonist, HEK293, read-out: 5-HT2C EC50, (nM ± SEM)
[12] = calcium mobilization, agonist, HEK293

T2 sequence (P31652 whole entry): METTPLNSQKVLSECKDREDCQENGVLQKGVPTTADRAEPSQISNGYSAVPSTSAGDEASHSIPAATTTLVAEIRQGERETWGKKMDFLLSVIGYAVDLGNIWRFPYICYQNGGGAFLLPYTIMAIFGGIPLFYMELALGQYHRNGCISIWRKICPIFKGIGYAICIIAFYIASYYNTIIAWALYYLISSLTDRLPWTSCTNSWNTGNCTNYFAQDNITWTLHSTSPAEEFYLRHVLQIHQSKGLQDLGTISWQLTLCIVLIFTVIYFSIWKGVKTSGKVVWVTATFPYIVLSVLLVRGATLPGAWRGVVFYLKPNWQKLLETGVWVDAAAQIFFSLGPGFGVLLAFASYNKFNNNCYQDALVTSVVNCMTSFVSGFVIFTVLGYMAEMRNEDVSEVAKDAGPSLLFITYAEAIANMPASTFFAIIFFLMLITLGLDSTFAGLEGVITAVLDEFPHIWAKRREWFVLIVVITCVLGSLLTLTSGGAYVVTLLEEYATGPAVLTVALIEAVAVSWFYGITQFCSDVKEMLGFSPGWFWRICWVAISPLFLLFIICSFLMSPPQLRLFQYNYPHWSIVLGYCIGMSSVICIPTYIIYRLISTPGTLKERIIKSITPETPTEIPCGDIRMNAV
T1 sequence (P23977 whole entry): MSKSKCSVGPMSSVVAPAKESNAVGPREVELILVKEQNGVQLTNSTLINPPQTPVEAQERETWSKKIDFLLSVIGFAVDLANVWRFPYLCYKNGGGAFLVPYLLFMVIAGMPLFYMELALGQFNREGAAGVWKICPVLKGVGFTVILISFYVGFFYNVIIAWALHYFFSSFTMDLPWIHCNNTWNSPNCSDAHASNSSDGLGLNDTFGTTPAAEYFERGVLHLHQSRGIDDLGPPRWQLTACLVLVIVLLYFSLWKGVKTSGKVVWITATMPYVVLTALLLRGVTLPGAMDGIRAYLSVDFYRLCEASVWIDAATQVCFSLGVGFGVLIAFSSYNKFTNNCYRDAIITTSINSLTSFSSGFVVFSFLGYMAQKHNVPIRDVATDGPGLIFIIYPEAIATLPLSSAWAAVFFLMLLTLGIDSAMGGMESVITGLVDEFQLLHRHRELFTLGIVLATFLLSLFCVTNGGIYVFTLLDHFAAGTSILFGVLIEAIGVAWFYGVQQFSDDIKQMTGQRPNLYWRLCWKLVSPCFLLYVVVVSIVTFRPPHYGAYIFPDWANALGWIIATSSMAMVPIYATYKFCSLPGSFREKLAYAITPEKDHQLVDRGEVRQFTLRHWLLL
T4 sequence (P41595 whole entry): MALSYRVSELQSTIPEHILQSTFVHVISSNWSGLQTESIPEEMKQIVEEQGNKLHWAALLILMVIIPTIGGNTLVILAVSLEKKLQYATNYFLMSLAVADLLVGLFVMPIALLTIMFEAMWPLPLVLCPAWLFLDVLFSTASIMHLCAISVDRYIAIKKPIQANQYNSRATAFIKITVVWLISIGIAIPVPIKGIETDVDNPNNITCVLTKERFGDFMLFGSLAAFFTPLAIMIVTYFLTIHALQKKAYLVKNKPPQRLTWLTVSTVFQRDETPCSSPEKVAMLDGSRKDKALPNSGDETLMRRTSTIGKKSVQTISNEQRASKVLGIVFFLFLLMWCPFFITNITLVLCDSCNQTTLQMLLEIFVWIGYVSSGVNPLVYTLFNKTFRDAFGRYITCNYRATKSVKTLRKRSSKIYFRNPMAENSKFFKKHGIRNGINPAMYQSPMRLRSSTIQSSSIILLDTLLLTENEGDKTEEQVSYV
T3 sequence (P28223 whole entry): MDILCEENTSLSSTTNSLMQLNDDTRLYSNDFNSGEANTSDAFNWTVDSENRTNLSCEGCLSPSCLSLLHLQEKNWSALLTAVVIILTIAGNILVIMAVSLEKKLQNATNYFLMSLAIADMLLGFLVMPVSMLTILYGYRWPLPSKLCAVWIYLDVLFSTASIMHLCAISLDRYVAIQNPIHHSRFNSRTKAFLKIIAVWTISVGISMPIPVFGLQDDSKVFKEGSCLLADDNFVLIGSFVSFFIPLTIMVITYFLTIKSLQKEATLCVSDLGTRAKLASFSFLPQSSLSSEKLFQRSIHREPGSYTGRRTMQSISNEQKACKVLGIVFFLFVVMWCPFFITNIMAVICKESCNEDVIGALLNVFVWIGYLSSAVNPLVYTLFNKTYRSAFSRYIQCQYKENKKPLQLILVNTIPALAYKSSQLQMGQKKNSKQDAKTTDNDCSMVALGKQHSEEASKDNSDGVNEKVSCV

SMILES | EC50 [1] [nM] | EC50 [3] [nM] | selectivity for releasing NE relative to DA (NET compared to DAT) [4] [fold] | EC50 (human 5-HT2A receptor; [9]) [nM] | EC50 (5-HT2B; [10]) [nM] | EC50 (5-HT2C; [11]) [nM] | 5-HT2A EC50, (nM ± SEM) (human 5-HT2A receptor; [12]) | further results
C[C@@H](N)C/C=C\c1ccccc1 [R-8, (1R,3Z)-1-Methyl-4-phenyl-but-3-enylamine] | 1420 | 211 | 6.7 | > 10000 | > 10000 | > 10000 | – | potency for releasing 5-HT relative to DA (SERT/DAT selectivity) [2]: 1.2 fold; EC50 [2]: 1160 ± 160 nM; EC50 (human 5-HT2A receptor; calcium mobilization, read-out: 5-HT2A EC50): > 10000 nM
CCNC(C)Cc1cccc(C(F)(F)F)c1 (stereo not shown) [fenfluramine] | – | – | – | – | – | – | – | cue-reinstated cocaine-seeking behavior [5]: dose-dependently attenuates cue-reinstated cocaine-seeking behavior; cocaine craving [6]: significantly reduces cocaine craving
CC(N)Cc1ccc2ccccc2c1 (stereo not shown) [compound 2] | – | – | – | – | – | – | – | depletion of cortical 5-HT (cortical 5-HT): do not cause depletion of cortical 5-HT
CC(N)/C=C\c1ccccc1 (stereo not shown) [compound 11, (2Z)-1-Methyl-3-phenyl-prop-2-enylamine] | 1110 ± 150 | 301 ± 76 | 3.7 | > 10000 | > 10000 | > 10000 | inactive | –
C[C@H](N)Cc1ccccc1 [compound 1, S(+)-amphetamine, reference compound] | – | – | – | – | – | – | inactive | EC50 (human 5-HT2A receptor): > 10000 nM; EC50 (5-HT2B): > 10000 nM; 5-HT2B EC50, (nM ± SEM) (5-HT2B; [12]): inactive; EC50 (5-HT2C): > 10000 nM; 5-HT2C EC50, (nM ± SEM) (5-HT2C; [12]): inactive; cocaine self-administration compared to food-maintained responding [7]: selective dose-dependent decrease in cocaine self-administration; cocaine use [8]: decrease in cocaine use
C[C@H](N)CC#Cc1ccccc1 [S-4, (1S)-1-Methyl-4-phenyl-but-3-ynylamine] | 443 | 784 ± 190 | – | 4950 ± 1400 | > 10000 | > 10000 | – | potency for releasing 5-HT relative to DA (SERT/DAT selectivity) [2]: essentially equipotent; EC50 [2]: 756 ± 79 nM; fold reduction in potency at 5-HT2A compared to 8 (human 5-HT2A receptor): 2.7 fold; Emax (human 5-HT2A receptor; HEK293, calcium mobilization, efficacy): ~80%
CC(N)/C=C/c1ccccc1 (stereo not shown) [compound 10, (2E)-1-Methyl-3-phenyl-prop-2-enylamine] | 666 | 308 ± 100 | 2.2 | > 10000 | > 10000 | > 10000 | inactive | –
